In test [1] the target is Bruton’s tyrosine kinase (BTK) (Homo sapiens, UniProt Q06187). In words: ELISA kinase activity assay with purchased BTK protein (MilliporeSigma #[…]-552). It counts as biochemical.
Test [2] concerns the target T1, interleukin-2-inducible T cell kinase (ITK) (Homo sapiens, UniProt Q08881).
T1 sequence (Q08881 1-620): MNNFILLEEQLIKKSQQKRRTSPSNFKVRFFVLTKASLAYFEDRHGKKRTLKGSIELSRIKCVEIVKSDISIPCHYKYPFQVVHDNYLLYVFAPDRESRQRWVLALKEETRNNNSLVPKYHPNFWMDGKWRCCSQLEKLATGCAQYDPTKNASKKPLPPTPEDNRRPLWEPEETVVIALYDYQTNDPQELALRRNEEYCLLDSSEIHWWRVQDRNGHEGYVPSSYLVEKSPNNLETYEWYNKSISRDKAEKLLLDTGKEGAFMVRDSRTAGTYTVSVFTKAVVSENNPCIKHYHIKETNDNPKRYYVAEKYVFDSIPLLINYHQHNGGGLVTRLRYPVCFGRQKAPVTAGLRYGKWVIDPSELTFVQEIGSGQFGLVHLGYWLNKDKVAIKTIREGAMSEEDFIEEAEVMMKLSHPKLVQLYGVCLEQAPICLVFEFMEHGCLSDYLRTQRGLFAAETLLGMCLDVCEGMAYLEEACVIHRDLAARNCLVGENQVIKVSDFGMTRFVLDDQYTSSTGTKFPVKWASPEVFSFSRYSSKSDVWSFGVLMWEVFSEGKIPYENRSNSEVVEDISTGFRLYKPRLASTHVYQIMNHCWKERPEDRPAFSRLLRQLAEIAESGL
The test can be described thus: ELISA kinase activity assay with purchased ITK protein (MilliporeSigma #[…]-660). The format is biochemical.

Structures are written as SMILES.

Sequence of Bruton’s tyrosine kinase (BTK) (Q06187 2-659): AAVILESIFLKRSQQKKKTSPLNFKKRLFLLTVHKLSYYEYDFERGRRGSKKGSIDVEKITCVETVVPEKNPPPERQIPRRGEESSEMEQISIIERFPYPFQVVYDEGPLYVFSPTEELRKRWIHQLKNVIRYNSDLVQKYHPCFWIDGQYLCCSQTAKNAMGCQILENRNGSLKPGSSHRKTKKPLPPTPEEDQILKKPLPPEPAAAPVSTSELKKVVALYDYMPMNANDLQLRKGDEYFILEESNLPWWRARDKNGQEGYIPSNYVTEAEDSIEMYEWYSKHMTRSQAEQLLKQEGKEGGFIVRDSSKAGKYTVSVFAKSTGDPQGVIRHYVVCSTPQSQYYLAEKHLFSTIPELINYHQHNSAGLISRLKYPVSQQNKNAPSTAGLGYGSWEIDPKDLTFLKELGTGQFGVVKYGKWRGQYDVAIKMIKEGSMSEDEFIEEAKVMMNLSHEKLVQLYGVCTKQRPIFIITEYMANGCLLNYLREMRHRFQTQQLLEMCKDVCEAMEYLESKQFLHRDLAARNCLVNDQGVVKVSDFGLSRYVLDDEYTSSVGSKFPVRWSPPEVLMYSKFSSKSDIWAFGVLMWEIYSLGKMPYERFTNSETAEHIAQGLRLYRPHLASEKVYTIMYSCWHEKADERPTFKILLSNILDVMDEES

As for `C=CC(=O)Nc1cc(Nc2ncc(Cl)c(Nc3ccc4ccccc4c3)n2)c(OC)cc1N(C)CCN(C)C` [ASK120067], the 50% inhibitory concentration (IC50) in test [1] turned out to be 2.1 nM; in test [2], 0.4 nM.

The term IC50 denotes the midpoint of a concentration-inhibition curve. A lower IC50 goes with higher potency.
